Assay results taken from patent US20250051277A1, “DELIVERY OF THERAPEUTIC ALKALOID COMPOUNDS” (Sensorium Therapeutics, Inc., priority 2021, published 2025).
Like-named read-outs stand apart in the source and are kept apart here.

Key:
[1] = format: physicochemical; details: SGF with pepsin, pH 1.5, 37° C., 0.5 mM
[2] = format: physicochemical; details: DI water, 25° C., 0.5 mM

## COc1ccc([C@@]23CC/C(=N\NC(=O)Nc4ccc(N5CCN(C)CC5)cc4)C[C@@H]2N(C)CC3)cc1OC [Compound 257, 1-[[(3aS,7aS)-3a-(3,4-dimethoxyphenyl)-1-methyl-2,3,4,5,7,7a-hexahydroindol-6-ylidene]amino]-3-[4-(4-methylpiperazin-1-yl)phenyl]urea]
[1]; time 1 min
  Condition 1 Conversion (%): 4.6%
[1]; time 5 min
  Condition 1 Conversion (%): 54.1%
[1]; time 30 min
  Condition 1 Conversion (%): 100%
[1]; time 1 h
  Condition 1 Conversion (%): 100%
[1]; time 4 h
  Condition 1 Conversion (%): 100%
[1]; time 24 h
  Condition 1 Conversion (%): 100%
[2]; time 1 min
  Condition 2 Conversion (%): 0%
[2]; time 5 min
  Condition 2 Conversion (%): 0%
[2]; time 30 min
  Condition 2 Conversion (%): 5%
[2]; time 1 h
  Condition 2 Conversion (%): 8%
[2]; time 4 h
  Condition 2 Conversion (%): 30%
[2]; time 24 h
  Condition 2 Conversion (%): 95%

## COc1ccc([C@@]23CC/C(=N\NC(=O)NC[C@H]4CC[C@H](C(=O)O)CC4)C[C@@H]2N(C)CC3)cc1OC [Compound 258, 4-[[[[(3aS,7aS)-3a-(3,4-dimethoxyphenyl)-1-methyl-2,3,4,5,7,7a-hexahydroindol-6-ylidene]amino]carbamoylamino]methyl]cyclohexanecarboxylicacid]
[1]; time 1 min
  Condition 1 Conversion (%): 0%
[1]; time 5 min
  Condition 1 Conversion (%): 0%
[1]; time 30 min
  Condition 1 Conversion (%): 42.82%
[1]; time 1 h
  Condition 1 Conversion (%): 100%
[1]; time 4 h
  Condition 1 Conversion (%): 100%
[1]; time 24 h
  Condition 1 Conversion (%): 100%
[2]; time 1 min
  Condition 2 Conversion (%): 0%
[2]; time 5 min
  Condition 2 Conversion (%): 0%
[2]; time 30 min
  Condition 2 Conversion (%): 0%
[2]; time 1 h
  Condition 2 Conversion (%): 0%
[2]; time 4 h
  Condition 2 Conversion (%): 0%
[2]; time 24 h
  Condition 2 Conversion (%): 0%

## COc1ccc([C@@]23CC/C(=N/NC(=O)Nc4ccccc4Cl)C[C@@H]2N(C)CC3)cc1OC [Compound 270, 1-[(Z)-[(3aS,7aS)-3a-(3,4-dimethoxyphenyl)-1-methyl-2,3,4,5,7,7a-hexahydroindol-6-ylidene]amino]-3-(2-chlorophenyl)urea]
[1]; time 1 min
  Condition 1 Conversion (%): 0%
[1]; time 5 min
  Condition 1 Conversion (%): 0%
[1]; time 30 min
  Condition 1 Conversion (%): 1%
[1]; time 1 h
  Condition 1 Conversion (%): 1%
[2]; time 1 min
  Condition 2 Conversion (%): 0%
[2]; time 5 min
  Condition 2 Conversion (%): 0%
[2]; time 30 min
  Condition 2 Conversion (%): 0%
[2]; time 1 h
  Condition 2 Conversion (%): 0%

## COc1ccc([C@@]23CCC(=NNC(=O)C45CC6CC(CC(C6)C4)C5)C[C@@H]2N(C)CC3)cc1OC [Compound 271, N-[[(3aS,7aS)-3a-(3,4-dimethoxyphenyl)-1-methyl-2,3,4,5,7,7a-hexahydroindol-6-ylidene]amino]adamantane-1-carboxamide]
[1]; time 1 min
  Condition 1 Conversion (%): 100%
[1]; time 5 min
  Condition 1 Conversion (%): 100%
[1]; time 30 min
  Condition 1 Conversion (%): 100%
[1]; time 1 h
  Condition 1 Conversion (%): 100%
[1]; time 4 h
  Condition 1 Conversion (%): 100%
[1]; time 24 h
  Condition 1 Conversion (%): 100%
[2]; time 1 min
  Condition 2 Conversion (%): 78.3%
[2]; time 5 min
  Condition 2 Conversion (%): 70.3%
[2]; time 30 min
  Condition 2 Conversion (%): 82%
[2]; time 1 h
  Condition 2 Conversion (%): 85.7%
[2]; time 4 h
  Condition 2 Conversion (%): 94.5%
[2]; time 24 h
  Condition 2 Conversion (%): 100%

## COc1ccc([C@@]23CC/C(=N/OC45CC6CC(CC(C6)C4)C5)C[C@@H]2N(C)CC3)cc1OC [Compound 274, (Z,3aS,7aS)-N-(1-adamantyloxy)-3a-(3,4-dimethoxyphenyl)-1-methyl-2,3,4,5,7,7a-hexahydroindol-6-imine]
[1]; time 1 min
  Condition 1 Conversion (%): 0%
[1]; time 5 min
  Condition 1 Conversion (%): 0%
[1]; time 30 min
  Condition 1 Conversion (%): 0%
[1]; time 1 h
  Condition 1 Conversion (%): 0%
[1]; time 4 h
  Condition 1 Conversion (%): 35.5%
[1]; time 24 h
  Condition 1 Conversion (%): 39.91%
[2]; time 1 min
  Condition 2 Conversion (%): 0%
[2]; time 5 min
  Condition 2 Conversion (%): 0%
[2]; time 30 min
  Condition 2 Conversion (%): 0%
[2]; time 1 h
  Condition 2 Conversion (%): 0%
[2]; time 4 h
  Condition 2 Conversion (%): 0%
[2]; time 24 h
  Condition 2 Conversion (%): 0%

## COc1ccc([C@@]23CCC(=NOCCC45CC6CC(CC(C6)C4)C5)C[C@@H]2N(C)CC3)cc1OC [Compound 276, (3aS,7aS)-N-[2-(1-adamantyl)ethoxy]-3a-(3,4-dimethoxyphenyl)-1-methyl-2,3,4,5,7,7a-hexahydroindol-6-imine]
[1]; time 1 min
  Condition 1 Conversion (%): 0%
[1]; time 5 min
  Condition 1 Conversion (%): 0%
[1]; time 30 min
  Condition 1 Conversion (%): 0%
[1]; time 1 h
  Condition 1 Conversion (%): 2.77%
[1]; time 4 h
  Condition 1 Conversion (%): 5.48%
[1]; time 24 h
  Condition 1 Conversion (%): 5.5%
[2]; time 1 min
  Condition 2 Conversion (%): 0%
[2]; time 5 min
  Condition 2 Conversion (%): 0%
[2]; time 30 min
  Condition 2 Conversion (%): 0%
[2]; time 1 h
  Condition 2 Conversion (%): 0%
[2]; time 4 h
  Condition 2 Conversion (%): 0%
[2]; time 24 h
  Condition 2 Conversion (%): 0%

## COc1ccc([C@@]23CCC(=NNC(=O)Nc4cccnc4)C[C@@H]2N(C)CC3)cc1OC [Compound 299, 1-[[(3aS,7aS)-3a-(3,4-dimethoxyphenyl)-1-methyl-2,3,4,5,7,7a-hexahydroindol-6-ylidene]amino]-3-(3-pyridyl)urea]
[1]; time 1 min
  Condition 1 Conversion (%): 53%
[1]; time 5 min
  Condition 1 Conversion (%): 100%
[1]; time 30 min
  Condition 1 Conversion (%): 100%
[1]; time 1 h
  Condition 1 Conversion (%): 100%
[1]; time 4 h
  Condition 1 Conversion (%): 100%
[1]; time 24 h
  Condition 1 Conversion (%): 100%
[2]; time 1 min
  Condition 2 Conversion (%): 0%
[2]; time 5 min
  Condition 2 Conversion (%): 0%
[2]; time 30 min
  Condition 2 Conversion (%): 0%
[2]; time 1 h
  Condition 2 Conversion (%): 0%
[2]; time 4 h
  Condition 2 Conversion (%): 8%
[2]; time 24 h
  Condition 2 Conversion (%): 13%

## COc1ccc([C@@]23CC/C(=N/OC45CC6CC(CC(C6)C4)C5)C[C@@H]2N(C)CC3)cc1OC [Compound 301, (Z,3aS,7aS)-N-(1-adamantyloxy)-3a-(3,4-dimethoxyphenyl)-1-methyl-2,3,4,5,7,7a-hexahydroindol-6-imine]
[1]; time 1 min
  Condition 1 Conversion (%): 0%
[1]; time 5 min
  Condition 1 Conversion (%): 0%
[1]; time 30 min
  Condition 1 Conversion (%): 0%
[1]; time 1 h
  Condition 1 Conversion (%): 0%
[1]; time 4 h
  Condition 1 Conversion (%): 100%
[1]; time 24 h
  Condition 1 Conversion (%): 100%
[2]; time 1 min
  Condition 2 Conversion (%): 0%
[2]; time 5 min
  Condition 2 Conversion (%): 0%
[2]; time 30 min
  Condition 2 Conversion (%): 0%
[2]; time 1 h
  Condition 2 Conversion (%): 0%
[2]; time 4 h
  Condition 2 Conversion (%): 0%
[2]; time 24 h
  Condition 2 Conversion (%): 0%

## COc1ccc([C@@]23CCC(=NNc4ccc(F)cc4)C[C@@H]2N(C)CC3)cc1OC [Compound 361, (3aS,7aS)-3a-(3,4-dimethoxyphenyl)-6-(2-(4-fluorophenyl)-hydrazineylidene)-1-methyloctahydro-1H-indole]
[1]; time 1 min
  Condition 1 Conversion (%): 10%
[1]; time 5 min
  Condition 1 Conversion (%): 100%
[1]; time 30 min
  Condition 1 Conversion (%): 100%
[1]; time 1 h
  Condition 1 Conversion (%): 100%
[1]; time 4 h
  Condition 1 Conversion (%): 100%
[1]; time 24 h
  Condition 1 Conversion (%): 100%
[2]; time 1 min
  Condition 2 Conversion (%): 0%
[2]; time 5 min
  Condition 2 Conversion (%): 0%
[2]; time 30 min
  Condition 2 Conversion (%): 0%
[2]; time 1 h
  Condition 2 Conversion (%): 0%
[2]; time 4 h
  Condition 2 Conversion (%): 45%
[2]; time 24 h
  Condition 2 Conversion (%): 100%

## COc1ccc([C@@]23CCC(=NNc4ccc(C(=O)O)cc4)C[C@@H]2N(C)CC3)cc1OC [Compound 363, 4-[2-[(3aS,7aS)-3a-(3,4-dimethoxyphenyl)-1-methyl-2,3,4,5,7,7a-hexahydroindol-6-ylidene]hydrazino]benzoic acid]
[1]; time 1 min
  Condition 1 Conversion (%): 0%
[1]; time 5 min
  Condition 1 Conversion (%): 0%
[1]; time 30 min
  Condition 1 Conversion (%): 0%
[1]; time 1 h
  Condition 1 Conversion (%): 2.1%
[1]; time 4 h
  Condition 1 Conversion (%): 27.1%
[1]; time 24 h
  Condition 1 Conversion (%): 46.7%
[2]; time 1 min
  Condition 2 Conversion (%): 0%
[2]; time 5 min
  Condition 2 Conversion (%): 0%
[2]; time 30 min
  Condition 2 Conversion (%): 0%
[2]; time 1 h
  Condition 2 Conversion (%): 0%
[2]; time 4 h
  Condition 2 Conversion (%): 0%
[2]; time 24 h
  Condition 2 Conversion (%): 8.1%

## COc1ccc([C@@]23CCC(=NNc4ncccc4C)C[C@@H]2N(C)CC3)cc1OC [Compound 364, (3aS,7aS)-3a-(3,4-dimethoxyphenyl)-1-methyl-6-(2-(3-methylpyridin-2-yl)hydrazineylidene)octahydro-1H-indole]
[1]; time 1 min
  Condition 1 Conversion (%): 10%
[1]; time 5 min
  Condition 1 Conversion (%): 100%
[1]; time 30 min
  Condition 1 Conversion (%): 14.91%
[1]; time 1 h
  Condition 1 Conversion (%): 16.09%
[1]; time 4 h
  Condition 1 Conversion (%): 77.07%
[1]; time 24 h
  Condition 1 Conversion (%): 90.5%
[2]; time 1 min
  Condition 2 Conversion (%): 0%
[2]; time 5 min
  Condition 2 Conversion (%): 0%
[2]; time 30 min
  Condition 2 Conversion (%): 0%
[2]; time 1 h
  Condition 2 Conversion (%): 35.78%
[2]; time 4 h
  Condition 2 Conversion (%): 47%
[2]; time 24 h
  Condition 2 Conversion (%): 78.89%
